In US9670519B2, “Methods for reducing accumulation of lactate during culturing and method for producing polypeptide” (Biocon Limited, priority 2011, dated 2017):
Where two headings read alike, the source gives them in different places.

What was measured:
[1] = system: Chinese Hamster Ovary (CHO) cells genetically engineered to produce the Anti VEGF-A antibody; conditions: for Residual Lactate: fedbatch; for further reduction in the accumulation of lactate in presence of said salt (versus control) / reduction of the accumulation of lactate in the media with the added salt: over the run till 7th day
Procedure: (§1) In another embodiment of the present disclosure, the level of lactate in the medium is analyzed using the device YSI 7100 MBS Analyzer.
(§2) The level of lactate is analyzed for all the following experiments in the below examples by the use of the YSI 7100 MBS Analyzer. The pH for all the below experiments as recited in the following examples are maintained between pH 6.85-7.2. The level of Oxygen is also maintained by the oxygen levels are maintained by agitation in the shaker incubator. In all the below mentioned examples, the concentration of the added salt is the concentration of the salt as present in the medium. The temperature can be suitably varied, based on the nature of the cells used and other related parameters.
(§3) The cell culturing was performed in fedbatch mode. In the cell culture, the mammalian host cells used were Chinese Hamster Ovary (CHO) cells and HyClone CDM4NS0 culture medium was supplied initially. The CHO cells were genetically engineered to produce the Anti VEGF-A antibody. The copper sulphate pentahydrate salt was added in the medium at a concentration of 0.4 mM. In contrast, there was no addition of any copper salt in the control medium. The production fermentation run started with an initial cell count of 0.3-0.45×10^6 cells/ml at 37±1° C., the first 3-4 days were dedicated to grow the cells in batch phase. In the next step, the temperature is lowered to 31+/−1° C. and the run is continued till 7th day. […] The produced Anti VEGF-A antibody was then collected from the media using the technique of Affinity Chromatography.
as §3, with “fedbatch.” for “fedbatch mode.”, “zinc” for “copper”, “hepta hydrate” for “pentahydrate”
as §3, with “fedbatch mode is employed.” for “fedbatch mode.”, “VEGF-A Antibody.” for “VEGF-A antibody.”, “salt is also” for “salt was”, “of 0.2” for “of 0.4”, “to 31±1°” for “to 31+/−1°”, “VEGF-A Antibody” for “VEGF-A antibody”
The cell culturing was performed in fedbatch mode. In the cell culture, the mammalian host cell used were Chinese Hamster Ovary (CHO) cells and HyClone CDM4NS0 culture medium was supplied initially. The CHO cells were genetically engineered to produce the Anti VEGF-A Antibody. The zinc sulphate hepta hydrate salt is also added in the medium at a concentration of 0.2 mM. In contrast, there was no addition of any zinc salt in the control medium.

[2] = system: Chinese Hamster Ovary (CHO) cells genetically engineered to produce the Anti Her-2 antibody; conditions: for Residual Lactate: salt 0.4 mM in HyClone CDM4NS0 medium, fedbatch; for further reduction in the accumulation of lactate in presence of said salt (versus control) / reduction of the accumulation of lactate in the media with the added salt: salt 0.4 mM, over the run till 7th day
Procedure: as §1, §2
as §3, with “Her-2” for “VEGF-A”
as §3, with “Her-2” for “VEGF-A”, “zinc” for “copper”, “hepta hydrate” for “pentahydrate”

[3] = system: Chinese Hamster Ovary (CHO) cells genetically engineered to produce the Anti TNF antibody; conditions: for Residual Lactate: salt 0.4 mM in HyClone CDM4NS0 medium, fedbatch; for further reduction in the accumulation of lactate in presence of said salt (versus control) / reduction of the accumulation of lactate in the media with the added salt: salt 0.4 mM, over the run till 7th day
Procedure: as §1, §2
as §3, with “Anti TNF” for “Anti VEGF-A”, “salt is also” for “salt was”, “to 31±1°” for “to 31+/−1°”
(§4) The cell culturing was performed in a fedbatch mode. In the cell culture, the mammalian host cells used were Chinese Hamster Ovary (CHO) cells and HyClone CDM4NS0 culture medium was supplied initially. The CHO cells were genetically engineered to produce the Anti TNF antibody. The zinc sulphate hepta hydrate salt is also added in the medium at a concentration of 0.4 mM. In contrast, there was no addition of any zinc salt in the control medium. The production fermentation run started with an initial cell count of 0.3-0.45×10^6 cells/ml at 37±1° C., the first 3-4 days were dedicated to grow the cells in batch phase. In the next step, the temperature is lowered to 31±1° C. and the run is continued till 7th day. […] The produced Anti TNF antibody was then collected from the media using the technique of Affinity Chromatography.

[4] = system: Chinese Hamster Ovary (CHO) cells genetically engineered to produce the Anti CD6 Antibody; conditions: for Residual Lactate: salt 0.4 mM in HyClone CDM4NS0 medium, fedbatch
Procedure: as §1, §2
as §4, with “in” for “in a”, “cellculture,” for “cell culture,”, “CD6 Antibody.” for “TNF antibody.”, “is” for “is also”, “CD6 Antibody” for “TNF antibody”

[5] = salt 0.2 mM in HyClone CDM4NS0 medium, age 72 hours
[6] = salt 0.2 mM in HyClone CDM4NS0 medium, age 96 hours
[7] = salt 0.2 mM in HyClone CDM4NS0 medium, age 120 hours
[8] = salt 0.2 mM in HyClone CDM4NS0 medium, age 144 hours
[9] = salt 0.2 mM in HyClone CDM4NS0 medium, age 168 hours
[10] = salt 0.4 mM in HyClone CDM4NS0 medium, age 72 hours
[11] = salt 0.4 mM in HyClone CDM4NS0 medium, age 96 hours
[12] = salt 0.4 mM in HyClone CDM4NS0 medium, age 120 hours
[13] = salt 0.4 mM in HyClone CDM4NS0 medium, age 144 hours
[14] = salt 0.4 mM in HyClone CDM4NS0 medium, age 168 hours
[15] = salt 0.4 mM, over the run till 7th day

SMILES	Residual Lactate [1, 5] [mM]	Residual Lactate [1, 6] [mM]	Residual Lactate [1, 7] [mM]	Residual Lactate [1, 8] [mM]	Residual Lactate [1, 9] [mM]	further reduction in the accumulation of lactate in presence of said salt (versus control) ([1]; salt 0.2 mM)	reduction of the accumulation of lactate in the media with the added salt ([1]; salt 0.2 mM)	Residual Lactate [1, 10] [mM]	Residual Lactate [1, 11] [mM]	Residual Lactate [1, 12] [mM]	Residual Lactate [1, 13] [mM]	Residual Lactate [1, 14] [mM]	further reduction in the accumulation of lactate in presence of said salt (versus control) ([1]; salt 0.4 mM)	reduction of the accumulation of lactate in the media with the added salt ([1]; salt 0.4 mM)	Residual Lactate ([2]; age 72 hours) [mM]	Residual Lactate ([2]; age 96 hours) [mM]	Residual Lactate ([2]; age 120 hours) [mM]	Residual Lactate ([2]; age 144 hours) [mM]	Residual Lactate ([2]; age 168 hours) [mM]	further reduction in the accumulation of lactate in presence of said salt (versus control) [2]	other results
O.O.O.O.O.O=S(=O)([O-])[O-].[Cu+2] [Copper salt, copper sulphate pentahydrate]	23.3	14.9	7.9	5.8	2.7	about 6.17%	about 85.40%	16	14.8	5.9	3.4	2	about 26.5%	about 87.5%	16	11.8	7.4	6.9	5.6	about 14.5%	reduction of the accumulation of lactate in the media with the added salt [2]: about 65%; Residual Lactate ([3]; age 72 hours): 20.4 mM; Residual Lactate ([3]; age 96 hours): 20.3 mM; Residual Lactate ([3]; age 120 hours): 16.3 mM; Residual Lactate ([3]; age 144 hours): 13.2 mM; Residual Lactate ([3]; age 168 hours): 14.6 mM; further reduction in the accumulation of lactate in presence of said salt (versus control) [3]: about 13.05%; reduction of the accumulation of lactate in the media with the added salt [3]: about 28.43%
O.O.O.O.O.O.O.O=S(=O)([O-])[O-].[Zn+2] [Zinc salt, zinc sulphate hepta hydrate]	23.3	16.3	10	5.9	3.4	about 9.18%	about 88.41%	16.6	14.7	7.6	6.2	4.5	about 11.57%	about 72.89%	16	11.8	7.4	6.9	5.6	about 30.38%	reduction of the accumulation of lactate in the media with the added salt [2]: about 64.88%; Residual Lactate ([4]; age 72 hours): 18 mM; Residual Lactate ([4]; age 96 hours): 11.2 mM; Residual Lactate ([4]; age 120 hours): 6.2 mM; Residual Lactate ([4]; age 144 hours): 3 mM; Residual Lactate ([4]; age 168 hours): 3.2 mM; further reduction in the accumulation of lactate in presence of said salt (versus control) [4, 15]: about 11.67%; reduction of the accumulation of lactate in the media with the added salt [4, 15]: about 82.22%; Residual Lactate ([3]; age 96 hours): 19.6 mM; Residual Lactate ([3]; age 120 hours): 16.4 mM; Residual Lactate ([3]; age 144 hours): 13.8 mM; Residual Lactate ([3]; age 168 hours): 15 mM; further reduction in the accumulation of lactate in presence of said salt (versus control) [3]: about 6.09%; reduction of the accumulation of lactate in the media with the added salt [3]: about 23.46%
